Assay [1] has as its system CA3-CA1 connections. Description: fEPSP/EPSC recordings in CA3-CA1 connections of hippocampal slices. In kind it is cell-based, rat.
Assay [2] concerns hippocampal slices. Briefly: Extracellular Aβ40/Aβ42 by sandwich ELISA in acute hippocampal slices stimulated by single spikes or spike bursts. In kind it is cell-based, rat.
The conditions of assay [3]: in vivo; cited from earlier work.
Assay [4] concerns rat hippocampal cultures. In kind it is cell-based.
Assay [5] relates to CFP-PS1-YFP. In kind it is cell-based, rat.
For assay [6], the system named is APP/PS1 hippocampal slices. Briefly: Extracellular Aβ40/Aβ42 by ELISA in APP/PS1 hippocampal slices, single spikes or spike bursts. Format: cell-based, mouse.
The test system of assay [7] is human cortical slices. Description: Extracellular Aβ40/Aβ42 by ELISA in human cortical slices, single spikes or spike bursts. In kind it is cell-based. To be noted: RS-baclofen 20 μM. Here is the method:
(§1) Human slices were subjected to 1 hour stimulations by single spikes or spike bursts as described for experiments in rodents herein above (each burst contains 5 APs, inter-spike-interval 10 ms, inter-burst interval 5 s) in ACSF in the presence of 50 μM AP-5 for blocking postsynaptic excitatory NMDA receptors. Following stimulation, [Aβ40]o and [Aβ42]o in ACSF were measured by sandwich ELISA. Extracellularly recorded field EPSPs (fEPSPs) were used to assess short-term synaptic plasticity.

Assay [8] concerns APP. Briefly: Western blot of APP processing in APP/PS1 hippocampal slices. In kind it is cell-based, mouse. The note with it: APP/PS1 slices before and after pre-treatment with baclofen. The source says: Immunoblot Analysis. At the end of each stimulation, hippocampal slices were homogenized and prepared for the detection of full-length APP, soluble APP and APP-C terminal fragment (APP-CTF) by western blotting as described previously^18. Full length APP and soluble APP was probed using anti-APP 22C11 monoclonal antibody (Millipore, Temecula, Calif., 1:2000). In APP/PS1 slices, APP-bCTF was detected using 82E1 monoclonal antibody (IBL, Japan, 1:200). Both 22C11 and 82E1 probing were followed by goat anti-mouse HRP conjugated secondary antibody (Jackson ImmunoResearch, West Grove, Pa., 1:5000). APP-aCTF was detected using rabbit anti-APP-CTF antibody (Millipore, Temecula, Calif., 1:10,000) followed by goat anti-rabbit HRP conjugated secondary antibody (Jackson ImmunoResearch, West Grove, Pa., 1:5000). Following detection, blots were stripped with Restore™ Western Blot Stripping Buffer (Pierce, Thermo Scientific, Rockford, Ill.) and then re-probed with mouse anti-actin (SIGMA, Israel, 1:10,000) and HRP-conjugated goat anti-mouse (1:5000) antibodies as a loading control protein. All proteins were visualized by SuperSignal® West Pico Chemiluminescent (Pierce; Thermo Scientific, Rockford, Ill.). Densitometry was performed using the ImageJ Analysis software, and each band was normalized to its actin signal.

Assay [9] has as its system human hippocampal slices. Description: Extracellular Aβ40/Aβ42 by ELISA in human hippocampal slices, single spikes or spike bursts. In kind it is cell-based. The note with it: RS-baclofen 20 μM. Here is the method: as §1
For assay [10], the system named is CA3-CA1 connections. Description: fEPSP recordings in CA3-CA1 connections of APP/PS1 hippocampal slices. Format: cell-based, mouse.
For assay [11], the system named is human cortical slices. Description: fEPSP recordings in human cortical slices. In kind it is cell-based. The note with it: RS-baclofen 20 μM. On the procedure: as §1
Assay [12] deals with CA3-CA1 connections. Description: fEPSP recordings in CA3-CA1 connections of human hippocampal slices. In kind it is cell-based. The note with it: RS-baclofen 20 μM. Here is the method: as §1
Where [13] appears, read: baclofen 1 μM, 3 h, APP/PS1 slices.
[14] abbreviates: 20 mM gabazine, 1 h at 37° C., blocking GABAA receptors.

“Also recorded” adds a separate entry of the source. Where two headings read alike, the source gives them in different places.

Turning to `CC(=O)OCOC(=O)CN(CCOCCOCCN(CC(=O)OCOC(C)=O)CC(=O)OCOC(C)=O)CC(=O)OCOC(C)=O` [EGTA-AM], in assay [1], the “EPSCs evoked by single spikes reduced by” value was 20%, the “burst/single ratio of EPSC charge transfer per spike (QEPSC)” value was “lower” and the “synaptic facilitation of EPSCs reduced by” value was determined as 70%. Moreover, in assay [2], the Aβ40/42 pattern dependency result is “abolished”, the “Aβ40/42 ratio associated with burst patterns” value is “decreased”, the Aβ40 burst/single ratio entry is reported as “reduced” and the “[Aβ40]o during spike bursts” value was “reduced”. Moreover, in assay [2], the “[Aβ42]o during either single spikes or bursts” value is “did not affect” and the “burst/single ratio of Aβ42” value is “did not affect”.
In the case of `[Cd]` [cadmium], the synaptic transmission entry in [1] was “completely blocked”. In addition, in assay [2], the Aβ40/42 pattern dependency entry is “abolished”; the Aβ40/42 ratio entry is recorded as “decreased”; the Aβ40 burst/single ratio result is “reduced”; the “[Aβ40]o reduced by, during single spikes” value was determined as 67%. Also, in assay [2], the “[Aβ40]o reduced by, during spike bursts” value is recorded as 77%; the “[Aβ42]o at either stimulation pattern” value is reported as “did not alter”; the “burst/single ratio of Aβ42” value is given as “did not affect”.
For `NC1=N[C@H](O)[C@H]2[C@H]3O[C@]4(O)O[C@@H]([C@@H](O)[C@@]2(N1)[C@@H]4O)[C@]3(O)CO` [tetrodotoxin], in [3], the “elimination rate of total Aβ” value is “lack of TTX effect”. For the same molecule, in assay [4], the “[Aβ40]o reduced by” value worked out at 34% and the “[Aβ42]o reduced by” value is 31%. In assay [5], the “CFP-PS1-YFP FRET efficiency” value was “did not change” and the “FYFP/FCFP (FR)” value is given as “not affected”.
For the molecule `OC[C@H]1O[C@@H](n2cnc3c(NC4CCCC4)nc(Cl)nc32)[C@H](O)[C@@H]1O` [CCPA, 2-Chloro-N-cyclopentyladenosine], in assay [1], the basal synaptic transmission result is “rescued”, the “burst/single ratio of fEPSP charge transfer per spike (QfEPSP)” value (“burst/single ratio … per spike (QfEPSP)” below) is on record as “rescued”, the “short-term facilitation (relative slopes of fEPSPs within the burst)” value is on record as “rescued” and the “slope of linear fit of input-output relationship (stimulation amplitude vs slope of fEPSP)” value is reported as 0.49±0.03. Also, in assay [2], the “Aβ40/42 during periods of high-frequency burst firing” value (“Aβ40/42 during periods” for short) is recorded as “boosting”, the “Aβ40 pattern dependency (burst/single ratio)” value is on record as “rescued”, the Aβ42 burst/single ratio entry is listed as “unaltered” and the “[Aβ40]o during single spikes” value was “decreased”. Further, in assay [2], the “[Aβ40]o during spike bursts” value is “increasing” and the “pattern dependency of the Aβ40/42 ratio” value is recorded as “restored”.
Regarding ω-conotoxin GVIA [ω-CgTx], in assay [1], the basal synaptic transmission entry is given as “rescued”, the “burst/single ratio … per spike (QfEPSP)” value is “rescued”, the “short-term facilitation (relative slopes of fEPSPs within the burst)” value was “rescued” and the “slope of linear fit of input-output relationship (stimulation amplitude vs slope of fEPSP)” value is 0.82±0.03. Moreover, in [2], the “Aβ40/42 during periods” value was “boosting”, the “Aβ40 pattern dependency (burst/single ratio)” value is on record as “rescued”, the Aβ42 burst/single ratio result is on record as “unaltered” and the “[Aβ40]o during single spikes” value is listed as “decreased”. Moreover, in [2], the “[Aβ40]o during spike bursts” value is reported as “increasing” and the “pattern dependency of the Aβ40/42 ratio” value is listed as “restored”.
For the molecule `C[C@@H](NC(=O)c1cc(C(=O)N[C@@H](Cc2ccccc2)[C@H](O)CNC2CC2)cc(N(C)S(C)(=O)=O)c1)c1ccccc1` [BACE1 inhibitor IV], in [2], the “[Aβ40]o in pretreated slices” value is “negligible” and the “[Aβ42]o in pretreated slices” value is recorded as “negligible”.
As to `NCC(CC(=O)O)c1ccc(Cl)cc1` (stereo not drawn) [baclofen], in assay [6], the “Aβ40/42 ratio associated with burst patterns” value is on record as “increased”, the “[Aβ40]o during single spikes” value is reported as “did not affect”, the “[Aβ42]o during either single spikes or bursts” value is reported as “did not affect” and the “burst/single ratio of Aβ42” value is “did not affect”. In [6], the “pattern dependency of the Aβ40/42 ratio” value is listed as “rescued” and the “reduction in the Aβ40 burst/single ratio” value was “rescued”. Moreover, the “[Aβ40]o during bursts” value in assay [6] (setting [13]) was “increased”. In [7], the Aβ42 pattern dependency result is “no effect”, the “burst pattern sensitivity of Aβ40” value was “increased” and the “pattern dependency of the Aβ40/42” value was “induced”. In addition, in assay [8], the “burst/single ratio of FL-APP” value is on record as “no significant differences” and the “burst/single ratio of βCTF” value is recorded as “no significant differences”. In addition, in assay [9], the “Aβ40/42 ratio during burst pattern of stimulation” value is listed as “increased”, the Aβ42 pattern dependency result is “without affecting”, the “[Aβ42]o during either single- or burst stimulation pattern” value is reported as “uniformly inhibited” and the “burst pattern sensitivity of Aβ40” value is on record as “increased”. Further, the “pattern dependency of the Aβ40/42” value in assay [9] is given as “induced”. Further, the “[Aβ40]o” value in assay [9] (stronger during single spikes) was “inhibited”. For the same molecule, in [10], the “burst/single ratio … per spike (QfEPSP)” value is listed as “reversed” and the “slope of linear fit of input-output relationship (stimulation amplitude vs slope of fEPSP)” value is listed as 0.95±0.06. In addition, the “reduction in short-term synaptic facilitation by burst in APP/PS1 mice” value in assay [10] (setting [13]) is reported as “reversed”. Also, the short-term synaptic depression result in [11] is recorded as “reduced”. In addition, the “FYFP/FCFP (FR) on changing stimulation pattern from single spikes to spike bursts” value in assay [5] is on record as “not affected”. In addition, in assay [1], the basal synaptic transmission entry is reported as “rescued”, the “burst/single ratio … per spike (QfEPSP)” value is recorded as “rescued”, the “short-term facilitation (relative slopes of fEPSPs within the burst)” value was “rescued” and the “slope of linear fit of input-output relationship (stimulation amplitude vs slope of fEPSP)” value was 0.77±0.02. In addition, the “short-term synaptic facilitation during the burst” value in assay [1] (3 h pre-incubation, CGP54626 10 μM in ACSF, baclofen 1 μM in ↑Ca/Mg-slices, recordings in normal ACSF) is “rescued”. Besides, the total synaptic strength entry in assay [1] (pretreatment of hippocampal slices with baclofen for 3 h before electrical stimulation) is on record as “did not alter”. Further, in [2], the “Aβ40/42 during periods” value is listed as “boosting”, the “Aβ40 pattern dependency (burst/single ratio)” value is on record as “rescued”, the Aβ42 burst/single ratio entry is reported as “unaltered” and the “[Aβ40]o during spike bursts” value is reported as “increasing; also recorded: increased”. Further, in assay [2], the “[Aβ42]o during either single spikes or bursts” value was “did not affect”; the “difference between the Aβ40/42 ratio associated with single and burst patterns” value was “restored”; the “pattern dependency of the Aβ40/42 ratio” value is listed as “restored”. For the same molecule, in assay [2] (3 h pre-incubation, CGP54626 10 μM, baclofen 1 μM in ↑Ca/Mg-slices), the “pattern dependency of Aβ40” value is “rescued”. Also, in assay [12], the “short-term synaptic facilitation during the burst” value was “increased”.
`COc1ccc(-c2ccc(=N)n(CCCC(=O)O)n2)cc1` [gabazine]: in assay [4] (setting [14]), the “[Aβ40]o increased by” value is 93.5% and the “[Aβ42]o increased by” value turned out to be 103%.
For the molecule `C[C@H](NC[C@H](O)CP(=O)(O)CC1CCCCC1)c1ccc(Cl)c(Cl)c1` [CGP54626], in assay [1], the “burst/single ratio … per spike (QfEPSP)” value is “reduced”, the “short-term synaptic facilitation during the burst” value is “reduced” and the “slope of linear fit of input-output relationship (stimulation amplitude vs slope of fEPSP)” value came to 1.13±0.06. For the same molecule, in assay [2], the “[Aβ40]o during single spikes” value is “did not affect”; the “[Aβ40]o during spike bursts” value was “reduced”; the “[Aβ42]o during either single spikes or bursts” value is given as “did not affect”; the “difference between the Aβ40/42 ratio associated with single and burst patterns” value is “abolished”. In [2], the “pattern dependency of Aβ40” value is “reduced” and the “pattern dependency of the Aβ40/42 ratio” value is listed as “reduced”.
